These are literature values, as cited in article PMC11915035, “Characterization of [^3H]Propionylated Human Peptide YY-A New Probe for Neuropeptide Y Y2 Receptor Binding Studies” (ACS Pharmacology & Translational Science, 2025).

Where two headings read alike, the source gives them in different places.

Data set [1] relates to Y2R. The following applies: read-out: literature IC50, sodium-containing buffer.
Data set [2] addresses calf hippocampus membrane preparation. The following applies: Krebs–Ringer/20 mM HEPES, 137 mM Na+; species of peptide not indicated; ref Czerwiec et al.[34]. An excerpt: (§1) Table 1 Reported Peptidic Radioligands Used for Y2R Binding Studies | column: Kd [nM]
The target of data set [3] is pY2R. As to conditions: COS-7 pY2R; 50 mM HEPES, 0 mM Na+; species of peptide not indicated; ref Rose et al.[2].
Description: as §1

In data set [4] the target is rat hippocampal membrane preparation. The following applies: KRP buffer, […] Na+; species of peptide not indicated; ref Dumont et al.[25].
Description: as §1

Data set [5] relates to Y1R, Y2R, Y4R, Y5R. The following applies: ref 2−4. An excerpt: Activation of all four receptor subtypes is induced by the homologous neuropeptides NPY, peptide YY (PYY), and pancreatic polypeptide (PP).[1]

Consider `CCN(CC)C(=O)C(c1ccccc1)N1CCN(c2ccc(NC(=O)c3ccccc3-c3cccnc3)cc2F)CC1` (stereo not shown) [JNJ31020028, N-(4–4-[2-(diethylamino)-2-oxo-1-phenylethyl]piperazin-1-yl-3-fluorophenyl)-2-pyridin-3-ylbenzamide], for which the IC50 in data set [1] (ref Shoblock et al.[39]) is 8500 pM; in data set [1] (ref Swanson et al.[59]), 6000 pM. As for “N-[^3H]propionyl-NPY: tritiated NPY derivative, most likely [^3H]propionylated at the ε-amino group of Lys^4”, in data set [2], the Kd was 700 pM.

“[^125I]NPY: iodine-125 labeled derivative of NPY; species human or not indicated”: the Kd in data set [3] is 580 pM. In the case of “[^125I]PYY (3–36): iodine-125 labeled derivative of PYY”, the Kd in data set [4] is 13 pM.

For the compound “[^125I]PYY: iodine-125 labeled derivative of PYY; species porcine or not indicated”, the Kd in data set [3] was 270 pM. Consider pancreatic polypeptide [PP], for which the “YR binding preference” value in data set [5] is “clear preference for Y4R over the other YRs”.

For orientation: IC50 means the concentration that gives 50% inhibition. Broadly, the Kd is a measure of binding affinity in units of concentration.
